In article PMC12090182, “Repurposing of the RIPK1-Selective Benzo[1,4]oxazepin-4-one Scaffold for the Development of a Type III LIMK1/2 Inhibitor” (ACS Chemical Biology, 2025):

Assays:
Assay in all cases: scanMAX KINOMEscan (Eurofins)
Format in all cases: binding
[1] = molecular target: RIPK5 (Homo sapiens, UniProt Q6XUX3); conditions: compound concentration 100 nM; Entrez DSTYK; read-out: Percent Control
From the text: (§1) Supplement cb5c00097_si_002.xlsx, sheet "Table S6 (Eurofins Selectivity)" | column: Percent Control

[2] = molecular target: MAP3K15 (Homo sapiens, UniProt Q6ZN16); conditions: compound concentration 100 nM; Entrez MAP3K15; read-out: Percent Control
From the text: as §1

[3] = molecular target: PKAC-alpha (Homo sapiens, UniProt P17612); conditions: compound concentration 100 nM; Entrez PRKACA; read-out: Percent Control
From the text: as §1

[4] = molecular target: ERBB4 (Homo sapiens, UniProt Q15303); conditions: 1000 nM, read-out: Percent Control
From the text: as §1

[5] = molecular target: EPHB1 (Homo sapiens, UniProt P54762); conditions: 1000 nM, read-out: Percent Control
From the text: as §1

[6] = molecular target: CAMK4 (Homo sapiens, UniProt Q16566); conditions: 1000 nM, read-out: Percent Control
From the text: as §1

[7] = molecular target: MYLK (Homo sapiens, UniProt Q15746); conditions: 1000 nM, read-out: Percent Control
From the text: as §1

[8] = molecular target: PIK3CD (Homo sapiens, UniProt O00329); conditions: 1000 nM, read-out: Percent Control
From the text: as §1

[9] = molecular target: NEK11 (Homo sapiens, UniProt Q8NG66); conditions: 1000 nM, read-out: Percent Control
From the text: as §1

[10] = molecular target: AXL (Homo sapiens, UniProt P30530); conditions: read-out: Percent Control
From the text: as §1

[11] = molecular target: NDR2 (Homo sapiens, UniProt Q9Y2H1); conditions: 1000 nM, read-out: Percent Control
From the text: as §1

[12] = molecular target: SGK (Homo sapiens, UniProt O00141); conditions: compound concentration 100 nM; Entrez SGK1; read-out: Percent Control
From the text: as §1

[13] = molecular target: PRKCE (Homo sapiens, UniProt Q02156); conditions: compound concentration 100 nM; Entrez PRKCE; read-out: Percent Control
From the text: as §1

[14] = molecular target: STK35 (Homo sapiens, UniProt Q8TDR2); conditions: compound concentration 100 nM; Entrez STK35; read-out: Percent Control
From the text: as §1

[15] = molecular target: NEK4 (Homo sapiens, UniProt P51957); conditions: compound concentration 100 nM; Entrez NEK4; read-out: Percent Control
From the text: as §1

[16] = molecular target: EPHB6 (Homo sapiens, UniProt O15197); conditions: 1000 nM, read-out: Percent Control
From the text: as §1

[17] = molecular target: IRAK3 (Homo sapiens, UniProt Q9Y616); conditions: read-out: Percent Control
From the text: as §1

[18] = molecular target: MAP4K5 (Homo sapiens, UniProt Q9Y4K4); conditions: 1000 nM, read-out: Percent Control
From the text: as §1

[19] = molecular target: MERTK (Homo sapiens, UniProt Q12866); conditions: 1000 nM, read-out: Percent Control
From the text: as §1

[20] = molecular target: GRK2 (Homo sapiens, UniProt P25098); conditions: read-out: Percent Control
From the text: as §1

[21] = molecular target: RSK3(Kin.Dom.2-C-terminal) (Homo sapiens, UniProt Q15349); conditions: compound concentration 100 nM; Entrez RPS6KA2; read-out: Percent Control
From the text: as §1

[22] = molecular target: PIP5K2C (Homo sapiens, UniProt Q8TBX8); conditions: 1000 nM, read-out: Percent Control
From the text: as §1

[23] = molecular target: MKNK2 (Homo sapiens, UniProt Q9HBH9); conditions: compound concentration 100 nM; Entrez MKNK2; read-out: Percent Control
From the text: as §1

[24] = molecular target: ADCK3 (Homo sapiens, UniProt Q8NI60); conditions: read-out: Percent Control
From the text: as §1

[25] = molecular target: TYK2(JH2domain-pseudokinase) (Homo sapiens, UniProt P29597); conditions: compound concentration 100 nM; Entrez TYK2; read-out: Percent Control
From the text: as §1

[26] = molecular target: FGFR2 (Homo sapiens, UniProt P21802); conditions: read-out: Percent Control
From the text: as §1

[27] = molecular target: MLCK (Homo sapiens, UniProt Q32MK0); conditions: 1000 nM, read-out: Percent Control
From the text: as §1

[28] = molecular target: STK36 (Homo sapiens, UniProt Q9NRP7); conditions: 1000 nM, read-out: Percent Control
From the text: as §1

[29] = molecular target: EPHA1 (Homo sapiens, UniProt P21709); conditions: 1000 nM, read-out: Percent Control
From the text: as §1

[30] = molecular target: ARK5 (Homo sapiens, UniProt O60285); conditions: read-out: Percent Control
From the text: as §1

[31] = molecular target: MARK3 (Homo sapiens, UniProt P27448); conditions: 1000 nM, read-out: Percent Control
From the text: as §1

[32] = molecular target: ADCK4 (Homo sapiens, UniProt Q96D53); conditions: 1000 nM, read-out: Percent Control
From the text: as §1

[33] = molecular target: ZAP70 (Homo sapiens, UniProt P43403); conditions: compound concentration 100 nM; Entrez ZAP70; read-out: Percent Control
From the text: as §1

[34] = molecular target: PIK3C2G (Homo sapiens, UniProt O75747); conditions: 1000 nM, read-out: Percent Control
From the text: as §1

[35] = molecular target: RSK3(Kin.Dom.1-N-terminal) (Homo sapiens, UniProt Q15349); conditions: 1000 nM, read-out: Percent Control
From the text: as §1

GRK2, sequence (P25098 whole entry): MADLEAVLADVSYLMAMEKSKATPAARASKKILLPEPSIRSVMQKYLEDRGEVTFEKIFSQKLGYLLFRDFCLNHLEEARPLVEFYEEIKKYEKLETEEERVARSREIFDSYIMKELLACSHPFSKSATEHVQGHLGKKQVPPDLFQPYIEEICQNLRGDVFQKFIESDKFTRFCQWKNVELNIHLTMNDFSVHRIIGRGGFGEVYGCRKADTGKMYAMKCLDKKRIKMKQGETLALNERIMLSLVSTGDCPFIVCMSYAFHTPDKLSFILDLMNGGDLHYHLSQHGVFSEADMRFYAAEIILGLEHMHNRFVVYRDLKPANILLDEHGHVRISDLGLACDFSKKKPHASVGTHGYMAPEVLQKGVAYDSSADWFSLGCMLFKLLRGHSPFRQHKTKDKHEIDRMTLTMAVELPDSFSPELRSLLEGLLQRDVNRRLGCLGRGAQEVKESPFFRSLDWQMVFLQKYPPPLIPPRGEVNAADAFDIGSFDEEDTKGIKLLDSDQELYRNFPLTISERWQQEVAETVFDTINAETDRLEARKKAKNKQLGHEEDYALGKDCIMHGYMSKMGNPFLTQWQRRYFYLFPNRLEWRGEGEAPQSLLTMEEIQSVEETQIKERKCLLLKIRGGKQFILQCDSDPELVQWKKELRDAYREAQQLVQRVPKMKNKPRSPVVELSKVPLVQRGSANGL
ADCK3, sequence (Q8NI60 163-647): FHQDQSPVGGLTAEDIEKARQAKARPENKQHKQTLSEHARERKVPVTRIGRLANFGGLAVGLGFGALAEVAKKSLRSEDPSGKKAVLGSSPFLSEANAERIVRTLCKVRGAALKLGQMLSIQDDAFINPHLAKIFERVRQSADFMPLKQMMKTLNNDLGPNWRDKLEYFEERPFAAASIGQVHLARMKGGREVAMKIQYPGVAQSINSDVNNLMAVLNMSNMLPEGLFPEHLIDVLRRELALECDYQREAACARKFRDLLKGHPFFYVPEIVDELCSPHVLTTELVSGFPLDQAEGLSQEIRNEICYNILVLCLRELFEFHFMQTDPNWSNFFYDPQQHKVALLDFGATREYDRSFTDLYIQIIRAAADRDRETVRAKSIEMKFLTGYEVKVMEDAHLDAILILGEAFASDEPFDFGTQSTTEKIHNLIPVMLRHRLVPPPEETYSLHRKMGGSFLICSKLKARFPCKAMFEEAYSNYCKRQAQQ
AXL, sequence (P30530 26-894): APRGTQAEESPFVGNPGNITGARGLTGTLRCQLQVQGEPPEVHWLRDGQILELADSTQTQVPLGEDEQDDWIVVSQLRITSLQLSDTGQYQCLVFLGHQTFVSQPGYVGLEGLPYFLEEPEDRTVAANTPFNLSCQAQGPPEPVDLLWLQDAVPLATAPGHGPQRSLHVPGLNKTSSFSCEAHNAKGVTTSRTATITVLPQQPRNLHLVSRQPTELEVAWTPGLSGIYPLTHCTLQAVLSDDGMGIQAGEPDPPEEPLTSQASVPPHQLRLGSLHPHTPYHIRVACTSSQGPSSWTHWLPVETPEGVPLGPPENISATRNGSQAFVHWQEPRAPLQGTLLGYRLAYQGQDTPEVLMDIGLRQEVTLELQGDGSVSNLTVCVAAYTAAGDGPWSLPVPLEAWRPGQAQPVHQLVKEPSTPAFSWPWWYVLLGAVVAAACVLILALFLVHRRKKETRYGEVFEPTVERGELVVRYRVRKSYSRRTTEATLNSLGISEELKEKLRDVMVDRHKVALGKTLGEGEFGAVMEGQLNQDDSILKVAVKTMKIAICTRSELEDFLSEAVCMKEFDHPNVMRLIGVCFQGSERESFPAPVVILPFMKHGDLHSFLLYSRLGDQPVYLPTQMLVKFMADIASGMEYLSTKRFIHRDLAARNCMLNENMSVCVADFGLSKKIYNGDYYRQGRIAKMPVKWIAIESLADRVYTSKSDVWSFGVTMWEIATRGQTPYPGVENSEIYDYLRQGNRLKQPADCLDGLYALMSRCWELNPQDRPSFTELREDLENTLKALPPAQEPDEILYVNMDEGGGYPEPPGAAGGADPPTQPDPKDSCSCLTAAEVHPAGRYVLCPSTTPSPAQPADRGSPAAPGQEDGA
ARK5, sequence (O60285 whole entry): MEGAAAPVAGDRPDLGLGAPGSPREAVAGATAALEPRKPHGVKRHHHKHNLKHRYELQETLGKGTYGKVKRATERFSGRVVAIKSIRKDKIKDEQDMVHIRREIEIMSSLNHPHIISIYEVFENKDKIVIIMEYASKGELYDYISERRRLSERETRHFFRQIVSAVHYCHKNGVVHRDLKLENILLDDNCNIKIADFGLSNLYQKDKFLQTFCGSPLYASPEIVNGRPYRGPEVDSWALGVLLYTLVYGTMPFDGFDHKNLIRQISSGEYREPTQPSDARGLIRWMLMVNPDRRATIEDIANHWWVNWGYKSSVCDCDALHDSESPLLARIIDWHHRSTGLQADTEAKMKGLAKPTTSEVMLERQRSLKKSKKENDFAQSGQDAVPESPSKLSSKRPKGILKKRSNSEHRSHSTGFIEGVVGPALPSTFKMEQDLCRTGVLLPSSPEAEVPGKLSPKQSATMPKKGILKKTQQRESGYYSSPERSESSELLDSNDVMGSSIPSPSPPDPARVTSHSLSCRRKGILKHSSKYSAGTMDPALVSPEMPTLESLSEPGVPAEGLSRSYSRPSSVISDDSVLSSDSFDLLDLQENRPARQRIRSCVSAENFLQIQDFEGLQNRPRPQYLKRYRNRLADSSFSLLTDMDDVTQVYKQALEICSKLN
FGFR2, sequence (P21802 22-821): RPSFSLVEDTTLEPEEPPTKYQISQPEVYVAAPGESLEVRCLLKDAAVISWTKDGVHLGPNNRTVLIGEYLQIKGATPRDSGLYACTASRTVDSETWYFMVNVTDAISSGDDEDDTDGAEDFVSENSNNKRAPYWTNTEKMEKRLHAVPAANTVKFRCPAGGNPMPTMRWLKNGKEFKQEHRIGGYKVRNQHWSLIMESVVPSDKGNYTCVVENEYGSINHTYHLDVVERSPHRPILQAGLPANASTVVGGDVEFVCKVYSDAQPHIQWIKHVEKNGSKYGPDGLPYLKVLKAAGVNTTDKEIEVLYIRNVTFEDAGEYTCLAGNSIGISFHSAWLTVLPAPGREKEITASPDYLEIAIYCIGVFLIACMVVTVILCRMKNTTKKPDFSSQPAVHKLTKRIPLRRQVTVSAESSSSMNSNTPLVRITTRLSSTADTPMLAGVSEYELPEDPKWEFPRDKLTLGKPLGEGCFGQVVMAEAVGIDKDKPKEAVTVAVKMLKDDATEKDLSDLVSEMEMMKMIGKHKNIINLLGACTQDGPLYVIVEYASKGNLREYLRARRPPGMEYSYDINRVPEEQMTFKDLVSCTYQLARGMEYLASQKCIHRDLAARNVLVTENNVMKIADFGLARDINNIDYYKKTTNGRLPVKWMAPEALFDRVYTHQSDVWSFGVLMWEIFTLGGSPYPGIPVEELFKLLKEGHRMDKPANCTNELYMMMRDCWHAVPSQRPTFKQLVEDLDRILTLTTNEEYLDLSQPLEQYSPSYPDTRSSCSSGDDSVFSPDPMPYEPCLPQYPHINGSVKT
IRAK3, sequence (Q9Y616 whole entry): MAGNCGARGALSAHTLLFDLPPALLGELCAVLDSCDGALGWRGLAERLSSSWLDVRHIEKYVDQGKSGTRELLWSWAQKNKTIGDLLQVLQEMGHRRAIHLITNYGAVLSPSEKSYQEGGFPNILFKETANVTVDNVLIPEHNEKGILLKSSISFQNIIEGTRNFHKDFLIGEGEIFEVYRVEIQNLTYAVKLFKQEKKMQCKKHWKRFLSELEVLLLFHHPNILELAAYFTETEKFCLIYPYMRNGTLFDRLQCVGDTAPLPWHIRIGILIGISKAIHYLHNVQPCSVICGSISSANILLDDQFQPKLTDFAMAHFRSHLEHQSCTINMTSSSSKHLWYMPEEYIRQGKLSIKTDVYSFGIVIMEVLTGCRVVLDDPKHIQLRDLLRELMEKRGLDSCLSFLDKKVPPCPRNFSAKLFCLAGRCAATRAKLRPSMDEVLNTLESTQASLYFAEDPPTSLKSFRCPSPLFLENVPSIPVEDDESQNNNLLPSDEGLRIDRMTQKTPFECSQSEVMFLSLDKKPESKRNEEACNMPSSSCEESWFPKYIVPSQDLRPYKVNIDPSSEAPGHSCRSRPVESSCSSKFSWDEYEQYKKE
RSK3(Kin.Dom.2-C-terminal), sequence (Q15349 415-672): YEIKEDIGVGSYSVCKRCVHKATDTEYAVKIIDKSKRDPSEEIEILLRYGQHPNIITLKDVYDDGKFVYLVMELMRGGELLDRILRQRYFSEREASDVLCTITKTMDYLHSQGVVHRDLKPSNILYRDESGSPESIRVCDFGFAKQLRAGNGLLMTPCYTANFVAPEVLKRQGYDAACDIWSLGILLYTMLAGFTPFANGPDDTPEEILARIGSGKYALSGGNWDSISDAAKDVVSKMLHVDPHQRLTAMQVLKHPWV
TYK2(JH2domain-pseudokinase), sequence (P29597 556-888): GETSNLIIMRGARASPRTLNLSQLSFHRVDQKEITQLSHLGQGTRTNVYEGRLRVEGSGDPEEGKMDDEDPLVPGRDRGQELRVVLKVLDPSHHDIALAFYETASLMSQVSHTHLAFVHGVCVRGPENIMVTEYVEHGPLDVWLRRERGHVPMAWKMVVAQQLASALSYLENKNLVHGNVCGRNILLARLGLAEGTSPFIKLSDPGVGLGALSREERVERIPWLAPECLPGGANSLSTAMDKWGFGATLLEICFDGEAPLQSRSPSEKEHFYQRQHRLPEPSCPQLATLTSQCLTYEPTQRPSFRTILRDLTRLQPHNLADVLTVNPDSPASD

## CN1C(=O)[C@@H](N2CCc3c(nn(Cc4ccccc4)c3C(N)=O)C2=O)COc2cc(Cl)ccc21 [Compound 10, (S)-2-benzyl-6-(8-chloro-5-methyl-4-oxo-2,3,4,5-tetrahydrobenzo[b][1,4]oxazepin-3-yl)-7-oxo-4,5,6,7-tetrahydro-2H-pyrazolo[3,4-c]pyridine-3-carboxamide]
[1]
  remaining binding at 0.1 µM: 91%
[2]
  remaining binding at 0.1 µM: 71%
[3]
  remaining binding at 0.1 µM: 90%
[4]
  remaining binding at 1 µM: 87%
[5]
  remaining binding at 1 µM: 94%
[6]
  remaining binding at 1 µM: 95%
[7]
  remaining binding at 1 µM: 86%
[8]
  remaining binding at 1 µM: 83%
[9]
  remaining binding at 1 µM: 78%
[10]; 1000 nM
  remaining binding at 1 µM: 100%
[10]; compound concentration 100 nM, Entrez AXL
  remaining binding at 0.1 µM: 95%
[11]
  remaining binding at 1 µM: 96%
[12]
  remaining binding at 0.1 µM: 98%
[13]
  remaining binding at 0.1 µM: 91%
[14]
  remaining binding at 0.1 µM: 87%
[15]
  remaining binding at 0.1 µM: 91%
[16]
  remaining binding at 1 µM: 94%
[17]; 1000 nM
  remaining binding at 1 µM: 100%
[17]; compound concentration 100 nM, Entrez IRAK3
  remaining binding at 0.1 µM: 95%
[18]
  remaining binding at 1 µM: 88%
[19]
  remaining binding at 1 µM: 98%
[20]; 1000 nM
  remaining binding at 1 µM: 99%
[20]; compound concentration 100 nM, Entrez ADRBK1
  remaining binding at 0.1 µM: 91%
[21]
  remaining binding at 0.1 µM: 100%
[22]
  remaining binding at 1 µM: 92%
[23]
  remaining binding at 0.1 µM: 94%
[24]; 1000 nM
  remaining binding at 1 µM: 100%
[24]; compound concentration 100 nM, Entrez CABC1
  remaining binding at 0.1 µM: 100%
[25]
  remaining binding at 0.1 µM: 100%
[26]; 1000 nM
  remaining binding at 1 µM: 100%
[26]; compound concentration 100 nM, Entrez FGFR2
  remaining binding at 0.1 µM: 100%
[27]
  remaining binding at 1 µM: 93%
[28]
  remaining binding at 1 µM: 80%
[29]
  remaining binding at 1 µM: 87%
[30]; 1000 nM
  remaining binding at 1 µM: 99%
[30]; compound concentration 100 nM, Entrez NUAK1
  remaining binding at 0.1 µM: 86%
[31]
  remaining binding at 1 µM: 98%
[32]
  remaining binding at 1 µM: 80%
[33]
  remaining binding at 0.1 µM: 84%
[34]
  remaining binding at 1 µM: 84%
[35]
  remaining binding at 1 µM: 93%
